Test results as given in article PMC11784013, “Potassium molybdate blocks APN-dependent coronavirus entry by degrading receptor via PIK3C3-mediated autophagy” (Journal of Virology, 2024).

System: BECN1
Assay: BECN1 expression in ST cells (western blot)
Assay type: cell-based, porcine
Conditions: Fig. S8A, PM 10 mM, PRCV 0.1 MOI, 16 h
Protocol: Fig 7 PM degrades APN expression via activating PIK3C3-mediated autophagy. (A) Graphical representation for autophagy and the targets of different autophagy inhibitors. (B) ST cells were treated with PM (10 mM) in the presence and absence of 3-MA (20 mM), SBI0206965 (20 µM), and 3BDO (30 µM) for 16 h, and the APN expression was detected by western blot. (C) ST cells were treated with PM (10 mM) in the presence and absence of 3-MA (20 mM) for 16 h, and the APN, PIK3C3, ATG14, BECN1, P62, and LC3 were measured by western blot. (D) ST cells were transfected with PIK3C3 siRNA-1, PIK3C3 siRNA-2, PIK3C3 siRNA-3, PIK3C3 siRNA-4, and NC siRNA for 24 h, the PIK3C3 expression was detected by western blot. […] The APN, PIK3C3, ATG14, BECN1, P62, and LC3 were detected by western blot. […] (G) PIK3C3 was detected by western blot in WT ST cells and PIK3C3 KO ST cells. (H) WT ST cells and PIK3C3 KO ST cells were treated with PM (10 mM) for 16 h and then the APN, PIK3C3, ATG14, BECN1, P62, and LC3 were detected by western blot. […] The APN, PIK3C3, P62, and LC3 were detected by western blot. All western blot results were calculated by Image J. All experiments were performed in triplicate.
Fig. S8. […] Then the APN, PIK3C3, ATG14, BECN1, P62, PRCV N and LC3 were detected by western blot (A), and viral titers and PRCV N mRNA level were determined by TCID50 (B) and RT-qPCR (C) . […]

Structure (SMILES): [K+].[K+].[O]=[Mo](=[O])([O-])[O-] [PM, potassium molybdate]
- BECN1 level, western blot, relative to WT without PM (=1) (PIK3C3 KO ST cells): 0.95
- BECN1 level, western blot, relative to WT without PM (=1) (WT ST cells): 1.01
